From US8921414B2, “Spiroketals” (EcoBiotics Ltd, priority 2005, dated 2014)
≈ marks a conversion by molar mass, not a printed value.

What was measured:
[1] = system: normal human fibroblasts (NFF); experiment: Additional in vitro activity: cytotoxic activity, NFF; type: cell-based; conditions: concentration with activity
MCF-7 breast cancer = experiment: Cell growth inhibition (Table 22), MCF7; type: cell-based; conditions: Homo sapiens, read-out: IC50 (drug dose which inhibits cell growth by 50%) MCF7
Method: (§1) The isolated compounds were tested against a number of human and non-human cancer cell lines. The human tumor cell lines were: MCF-7, MDA-MB-231 and T47D, breast cancer; DU145 and PC3, prostate cancer; CI80-13S, ovarian cancer; MM96L, D04, SkMel5, MM418c5 melanoma; HT29, colon cancer; K562 and HL60, leukemia. Mouse cell lines were the B16 mouse melanoma and LK2 UV-induced squamous cell carcinoma (SCC). Neonatal foreskin fibroblasts (NFF) were used as normal control cells. Cells were cultured at 37° C. in 5% carbon dioxide/air, in RPMI 1640 medium containing 10% fetal calf serum.

breast MCF-7 = experiment: Additional in vitro activity: antitumor activity, MCF-7; type: cell-based, human; conditions: concentration with activity
Giardia spp. = experiment: TriTOX (Gi) anti-protozoan bioassay; type: cell-based; conditions: for Gi LD99: weight of chemical in last well with activity, real value may be lower
From the text: TriTOX (alternatively referred to herein as Gi) is a microtitre plate based chromogenic bioassay for the screening of anti-protozoan activity of pathogenic, anaerobic/microaerophilic protozoans for example Giardia spp. and Trichomonas spp. The bioassays are run under anaerobic conditions and features species specific chromogens. […] Aliquots of each concentration(s) are applied to the wells of 96-well microtitre plates and diluted with media. […] The lowest concentration at which the compound is active is noted as the minimum inhibitory concentration (MIC). Additionally, microscopic inspection is carried out to identify any patterns of morphological change that may be consistent with a type of toxicity and therefore mode of action. Giardia spp. was utilized for this assay.

prostate DU145 = experiment: Additional in vitro activity: antitumor activity, DU145; type: cell-based, human; conditions: concentration with activity
CI80-13S ovarian cancer = experiment: Cell growth inhibition (Table 22), C180-13S; type: cell-based; conditions: Homo sapiens, read-out: IC50 (drug dose which inhibits cell growth by 50%) C180-13S
Method: as §1

[2] = system: Neonatal foreskin fibroblasts (NFF); experiment: Cell growth inhibition (Table 22), NFF; type: cell-based; conditions: Homo sapiens, read-out: IC50 (drug dose which inhibits cell growth by 50%) NFF
Method: as §1

[3] = system: NS1 murine myeloma cell line; experiment: CyTOX (Cy) cytotoxicity bioassay; type: cell-based; conditions: for Cy LD99: weight of chemical in last well with activity, real value may be lower
From the text: CyTOX (alternatively referred to herein as Cy) is a microtitre plate bioassay use to identify potential antitumor actives. CyTOX is a chromogenic bioassay with broad application to a wide range of tumor and non-tumor cell lines. […] CyTOX features a liquid media into which the test compound has been incorporated together with a novel chromogen. As the cells grow and divide the chromogen is metabolised from purple in a single step process to a colourless metabolite. CyTOX is routinely undertaken using NS1 murine myeloma cell line as a guide to mammalian cell toxicity. Briefly, in CyTOX the cells were applied to the media containing the test chemical and allowed to grow for 72 hours. The assay was monitored at 24, 48 and 72 hours and the active wells identified.

melanoma MM418c5 = experiment: Additional in vitro activity: antitumor activity, MM418c5; type: cell-based, human; conditions: concentration with activity
melanoma MM96L = experiment: Additional in vitro activity: antitumor activity, MM96L; type: cell-based, human; conditions: concentration with activity
DU145 prostate cancer = experiment: Cell growth inhibition (Table 22), DU145; type: cell-based; conditions: Homo sapiens, DU-145; read-out: IC50 (drug dose which inhibits cell growth by 50%) DU145
Method: as §1

Haemonchus contortus = experiment: NemaTOX (Ne) anthelmintic larval development bioassay; conditions: for Ne LD99: weight of chemical in last well with activity, real value may be lower
Method: NemaTOX (alternatively referred to herein as Ne) is an anthelmintic bioassay, applicable to all parasitic nematodes with free-living life cycle stages, and can be used as a screen to detect activity and define the species spectrum of compounds against parasitic nematodes and examine the impact of pre-existing resistance to other anthelmintic classes on potency. Haemonchus contortus was utilised for this assay.
The effect on larval development is determined in this assay by the method described by Gill et al. (1995) Int. J. Parasitol. 25: 463-470. Briefly, in this assay nematode eggs were applied to the surface of an agar matrix containing the test sample and allowed to develop through to the L3, infective stage (6 days). At this time the stage of larval development reached and any unusual features (deformity, paralysis, toxicity) were noted by microscopic examination.

MM96L melanoma = experiment: Cell growth inhibition (Table 22), MM96L; type: cell-based; conditions: Homo sapiens, read-out: IC50 (drug dose which inhibits cell growth by 50%) MM96L
Method: as §1

leukemia K562 = experiment: Additional in vitro activity: antitumor activity, K562; type: cell-based, human; conditions: concentration with activity
[4] = system: EBV-infected peripheral blood mononuclear cells (PBMCs); experiment: EBV transformation of donor PBMCs (anti-inflammatory screening); type: cell-based, human; conditions: 2 μg/mL, 28 days, visual and 3H-T cpm
Method: Three main assays were performed; transformation, regression and mixed lymphocyte reactions (MLRs). Reference is made to Moss et al., (D J, Rickinson A B, Pope J H: Long-term T-cell-mediated immunity to Epstein-Barr virus in man. III. Activation of cytotoxic T cells in virus-infected leukocyte cultures. Int J Cancer 1979, 23:618-625). Complete regression of virus-induced transformation in cultures of seropositive donor leukocytes
Both regression and MLR quantitative experimental results were obtained visually and by the addition of [methyl-^3H]thymidine (3H-T). 3H-T is a nucleoside analogue and is incorporated into the DNA of proliferating cells. If cells are proliferating, the counts/minute (cpm) is high; if cells are dead, the cpm is low.
EBV seronegative and seropositive donors' peripheral blood mononuclear cells (PBMCs) were infected with EBV. […]
The cells were then incubated for 28 days when results were determined visually and by the addition of 3H-T to obtain quantitative data.
The individual transformation summaries were determined by visual data and 3H-T cpm data from EBV seronegative_donors' peripheral blood mononuclear cells (PBMC). […] The 3H-T cpm cut-off values were determined for each individual assay by this control value, plus and minus a five (5)-fold difference. […]

SMILES | cytotoxic activity against normal human fibroblasts (NFF) at [1] [µg/mL] | IC50 (MCF-7 breast cancer) [µg/mL] | antitumor activity against breast MCF-7 at (breast MCF-7) [µg/mL] | antitumor activity against prostate DU145 at (prostate DU145) [µg/mL] | IC50 (CI80-13S ovarian cancer) [µg/mL] | IC50 [2] [µg/mL] | antitumor activity against melanoma MM418c5 at (melanoma MM418c5) [µg/mL] | antitumor activity against melanoma MM96L at (melanoma MM96L) [µg/mL] | IC50 (DU145 prostate cancer) [µg/mL] | IC50 (MM96L melanoma) [µg/mL] | antitumor activity against leukemia K562 at (leukemia K562) [µg/mL] | inhibition of transformation [4] | other results
CC/C=C/CCCCCCCCCCCC(O)CC1CC(O)CC2(CC3OC(=O)C=CC3O2)O1 (stereo not shown) [EBI-24] | 10 | 0.2 (≈ 0.418 µM) | 10 | 10 | 0.75 (≈ 1.57 µM) | 0.8 (≈ 1.67 µM) | 10 | 3 | 0.7 (≈ 1.46 µM) | 1.3 (≈ 2.72 µM) | 10 | strong inhibition | Gi LD99 (Giardia spp.; listed as EB116.LA3.31-36/40): 100 µg/mL; Gi LD99 (Giardia spp.; listed as EB116.LA3.60-47/49): 50 µg/mL; Cy LD99 [3]: 0.78 µg/mL; Ne LD99 (Haemonchus contortus; listed as EB116.LA3.31-36/40): 100 µg/mL; Ne LD99 (Haemonchus contortus; listed as EB116.LA3.60-47/49): 50 µg/mL
CCCCCCCCCCCCCC(O)CC1CC(O)CC2(CC3OC(=O)C=CC3O2)O1 (stereo not shown) [EBI-23] | 30 | 0.5 (≈ 1.1 µM) | 1 | 3 | 0.2 (≈ 0.442 µM) | 2 (≈ 4.42 µM) | 1 | 1 | 0.7 (≈ 1.55 µM) | 0.15 (≈ 0.331 µM) | 3 | strong inhibition | Gi Titre (Giardia spp.): 4; Gi LD99 (Giardia spp.; listed as EB77.LA4.92-100): 16 µg/mL; Gi LD99 (Giardia spp.; listed as EB116.LA3.31-27/32): 50 µg/mL; Gi LD99 (Giardia spp.; listed as EB116.LA3.60-40/42): 50 µg/mL; Cy Titre [3]: 256; Cy LD99 ([3]; listed as EB77.LA4.92-100): 0.24 µg/mL; Cy LD99 ([3]; listed as EB116.LA3.31-27/32): 0.78 µg/mL; Cy LD99 ([3]; listed as EB116.LA3.60-40/42): 0.78 µg/mL; Ne Titre (Haemonchus contortus): 1; Ne LD99 (Haemonchus contortus; listed as EB77.LA4.92-100): 63 µg/mL; Ne LD99 (Haemonchus contortus; listed as EB116.LA3.31-27/32): 100 µg/mL
